Records with an inconclusive call do not appear. Active and inactive are the calls of the source. No rule for the calls is given here.
tested on: Mycobacterium tuberculosis non-replicating, growth inhibition; assay: growth inhibition of non-replicating M. tuberculosis (AID 488890)

Structure (SMILES)	IC50
CC(C)c1ccc(OCC(=O)NNC(=O)c2cnccn2)cc1	11.9 µM (inactive)
O=C(N/N=C/c1ccc([N+](=O)[O-])o1)c1cc2ccccc2o1	0.46 µM
O=C(O)c1ccccc1C(=O)NNc1ccc(F)cc1	12.4 µM (inactive)
COc1cc(/C=C/c2ccc3c([N+](=O)[O-])cccc3n2)ccc1OCC(=O)O	1.79 µM
Cc1cc(OCC(=O)Nc2ccncc2)ccc1Br	3.47 µM
O=S(=O)(CCN1CCN(c2ccccn2)CC1)c1ccc(Cl)cc1Cl	8.61 µM
CN1CCC(O)(c2ccc(Cl)cc2)C(C(=O)c2ccc(Cl)cc2)C1 (stereo not drawn)	1.97 µM
CCCCNC(=O)N1CCc2ccccc2C1	5.03 µM
CC(=O)N(c1nnc(-c2ccc(C)cc2)s1)C1CCCC1	26.2 µM (inactive)
COc1ccc(C(=O)CCNc2ccc(F)cc2)cc1	5.22 µM
COc1ccc(CNC(=O)c2cc3cccc(O)c3oc2=N)cc1	14.3 µM (inactive)
CCCCn1c(=O)c(C(=O)Nc2nnc(C(C)C)s2)c(O)c2ccccc21	1.87 µM
CCOc1ccc(C(=O)CCN2CCCCCC2)cc1	2.44 µM
CCn1c(=O)c(C(=O)Nc2ncccc2C)c(O)c2ccccc21	9.94 µM
Cc1cc(-c2c(C)[nH]n(-c3ccccc3)c2=O)n[nH]1	29.2 µM (inactive)
CCCN(CCC)CCNC(=O)c1cc2c(-c3ccc(Cl)cc3)nn(C)c2s1	22.5 µM (inactive)
O=C(Nc1nnc(-c2ccc(Cl)cc2)o1)c1ccccc1Br	0.58 µM
CSC1=NSC2=NC(=O)/C(=C\c3cccs3)C(=N)N12	4.51 µM
Cc1cccc2nc(-c3cccnc3)c(NCCC(C)C)n12	16.1 µM (inactive)
O=C(Nc1nc(-c2ccccn2)cs1)c1ccco1	6.64 µM
CCOc1ccc(OCc2ccc(C(=O)OCc3ccccn3)o2)cc1	8.49 µM

Structure (SMILES)	IC50
C/C(CC(=O)Nc1ccc(N(C)C)cc1)=N\NC(=O)c1ccncc1	0.3 µM
O=C(Nc1ccn(Cc2ccccc2)n1)c1ccc(F)cc1	14.8 µM (inactive)
CCOc1ccc(NCC(=O)c2ccc(C)cc2)cc1	4.95 µM
O=C(Nc1nc2ccccc2[nH]1)c1cccc([N+](=O)[O-])c1	33.2 µM (inactive)
COC(=O)C(O)(c1ccc(NC(=S)NC(=O)c2ccccc2)cc1)C(F)(F)F (stereo not drawn)	14.8 µM (inactive)
O=C(CCSc1ccccn1)c1ccccc1	9.72 µM
Cc1nc(C(=O)Nc2ccccc2)sc1C(=O)Nc1ccccc1	9.77 µM
COc1cccc(N2C(=O)NC(=O)/C(=C/c3ccc([N+](=O)[O-])s3)C2=O)c1	17.1 µM (inactive)
c1ccc(-c2cccc(-c3ccccn3)n2)nc1	19.7 µM (inactive)
COc1ccccc1-c1nnc(Sc2nc([N+](=O)[O-])nn2C)o1	8.19 µM
CSC1=N/C(=C\c2ccc3c(c2)OCO3)C(=O)S1	4.95 µM
Cc1ccc(NC(=O)CCSc2nnc(-c3ccco3)o2)cc1	8.38 µM
Cc1ccc(Nc2ccccc2N)cc1	2.52 µM
CCc1nonc1NC(=O)COc1ccc(Cl)c(C)c1	9.9 µM
O=C(COC(=O)c1cc2ccccc2oc1=O)Nc1ccc(F)cc1F	10.3 µM (inactive)
Cc1ccccc1OCC(O)Cn1c(=N)n(Cc2ccccc2)c2ccccc21 (stereo not drawn)	7.63 µM
c1ccc(-c2nc(NCCCn3ccnc3)c3ccccc3n2)cc1	17.8 µM (inactive)
CC(C)Cn1c([N+](=O)[O-])nc2c1c(=O)[nH]c(=O)n2C	5.81 µM
CC(C)c1ccc(C2=C(O)c3ccccc3C(=O)C2=O)cc1	3.7 µM
O=C(c1cc2ccccc2o1)c1nc2c(n1O)CCCCC2	12.8 µM (inactive)
CCn1c(NC(=O)C2CCCCC2)nc2ccccc21	4.53 µM

Structure (SMILES)	IC50
O=C(CCN1CCN(C/C=C/c2ccccc2)CC1)Nc1ccc(Cl)cc1	18.8 µM (inactive)
Cc1nc([N+](=O)[O-])c(Br)n1Cc1ccccc1	14.1 µM (inactive)
Cc1cc(C(=O)NNc2cc(Cl)ccc2Cl)no1	18.7 µM (inactive)
CC(C)c1ccc2c(c1)C(N1CCNCC1)Cc1ccc(F)cc1S2 (stereo not drawn)	14.5 µM (inactive)
Cc1cc(C)n(-c2nc(NCCCO)c3c4c(sc3n2)CCCC4)n1	10.5 µM (inactive)
Cc1cc(C)n(-c2ccc(C(=O)Oc3ccc4c(c3)OCO4)cc2)n1	11.9 µM (inactive)
CCOC(=O)c1cc([N+](=O)[O-])c([N+](=O)[O-])cc1NC(C)=O	2.44 µM
Cc1[nH]nc2c1C(c1ccc(OC(=O)c3ccco3)cc1)C(C#N)=C(N)O2 (stereo not drawn)	6.69 µM
COc1ccccc1NC(=O)CCN1CCN(c2ccc(Cl)cc2)CC1	24.2 µM (inactive)
COc1ccc(C(=O)C(CN2CCCC2)c2ccccc2)cc1 (stereo not drawn)	5.58 µM
O=C(NCC1CCCCC1)c1ccco1	2.18 µM
COc1ccc(C(C)=O)cc1COC(=O)c1ccc2ccccc2n1	4.38 µM
NC(N)=N/N=C/c1cc([N+](=O)[O-])ccc1O	4.29 µM
CCCC(C)C(=O)Nc1ccc(Cl)cn1 (stereo not drawn)	10.3 µM (inactive)
O=C(N/N=C\c1ccc([N+](=O)[O-])o1)c1cncc(Br)c1	8.55 µM
Cc1ccnc(NC(=O)COc2ccc3c(c2)CCC3)c1	1.7 µM
COc1ccc(C(=O)NN/C(C)=C/C(=O)c2ccccc2)cc1	1.34 µM
CCOC(=O)Cc1ccc(NCc2ccc(Cl)cc2)cc1	10.8 µM (inactive)
O=C(Nc1nccs1)c1ccc(-c2ccc(Cl)cc2)o1	21.3 µM (inactive)
N#Cc1nc(-c2ccc(OCc3ccccc3)cc2)oc1NCCCn1ccnc1	15.4 µM (inactive)
C=CCn1c(=O)c(C(=O)Nc2cccnc2)c(O)c2ccccc21	7.58 µM

Structure (SMILES)	IC50
COc1cc(Cl)cc(/C=N/NC(N)=O)c1O	10.2 µM (inactive)
COc1cc(OC)cc(C(=O)Oc2c(CN3CCOCC3)cc(Cl)c3cccnc23)c1	7.87 µM
CN1C(=O)/C(=C/c2cccc(Cl)c2)Sc2ccc(C(=O)N3CCCC3)cc21	22 µM (inactive)
O=C(CN1CCC(NC(=O)c2cccc(F)c2)CC1)Nc1ccc(Br)cc1	31.9 µM (inactive)
Cc1ccc2nc(-c3ccccn3)c(NC3CCCC3)n2c1	12.5 µM (inactive)
Oc1ccc(Br)cc1-c1ccn[nH]1	1.71 µM
O=C(OCC#CCSc1nnc(-c2ccncc2)o1)c1cccs1	4.13 µM
COc1ccc2oc(=O)c(/C(C)=N/NC(=O)c3ccncc3)cc2c1	0.84 µM
Cc1onc(-c2c(F)cccc2Cl)c1C(=O)O/N=C(\N)c1ccc([N+](=O)[O-])o1	5.96 µM
CN1CCC(O)(c2ccccc2)C(C(=O)c2ccccc2)C1 (stereo not drawn)	4.85 µM
O=C(N/N=C/c1ccc([N+](=O)[O-])o1)c1ccc(NS(=O)(=O)c2cccs2)cc1	9.88 µM
CCc1ccc(OCC(=O)Nc2ccncc2)c(Br)c1	6.25 µM
Oc1c(C(c2ccccc2Cl)N2CCCC2)ccc2cccnc12 (stereo not drawn)	4.68 µM
O=C(N=Nc1c(O)[nH]c2ccc(Br)cc12)c1ccccc1-n1cccc1	5.94 µM
CCOC(=O)c1cn(Cc2cccc(Cl)c2)nn1	8.03 µM
CCOc1cc(-c2sc(Nc3cc(C)ccc3OC)n[n+]2-c2ccccc2)ccc1OC	4.29 µM
Cc1ccc(C(=O)N/N=C\c2ccc([N+](=O)[O-])s2)cn1	3.36 µM
COc1cccc(C(=O)N2N=C(c3ccccn3)CC2(O)C(F)(F)F)c1 (stereo not drawn)	12.3 µM (inactive)
O=C(CCc1ccccc1)N/N=C/c1cc(Br)ccc1O	0.44 µM
CN(CCOCCOc1ccc(F)cc1)Cc1ccccc1	10.9 µM (inactive)

— PubChem BioAssay AID488890 (Southern Research Specialized Biocontainment Screening …, 2010)
